US20240066027A1 (DOMAIN THERAPEUTICS, priority 2020, published 2024)
Where a name gives a salt, the structure may show the parent alone.

What follows are compounds tested against T1, human PAR-2 (hPAR-2) receptor expressed in HEK-293 T cells in an endogenous manner (Homo sapiens, UniProt P55085) (assay: In vitro human PAR-2 functional antagonist activity using calcium assays (Fluo4AM, FLIPR Tetra)). Details: HEK-293 T cells stimulated by an EC80 of the 2-Furoyl-LIGRLO-NH2 peptide after 10 min incubation with compound; 20 concentrations, duplicate, two independent experiments.
T1 construct: human PAR-2 (hPAR-2) receptor expressed in HEK-293 T cells in an endogenous manner; endogenous in cells; host or cells: HEK-293 T cells
T1 sequence (P55085 26-397): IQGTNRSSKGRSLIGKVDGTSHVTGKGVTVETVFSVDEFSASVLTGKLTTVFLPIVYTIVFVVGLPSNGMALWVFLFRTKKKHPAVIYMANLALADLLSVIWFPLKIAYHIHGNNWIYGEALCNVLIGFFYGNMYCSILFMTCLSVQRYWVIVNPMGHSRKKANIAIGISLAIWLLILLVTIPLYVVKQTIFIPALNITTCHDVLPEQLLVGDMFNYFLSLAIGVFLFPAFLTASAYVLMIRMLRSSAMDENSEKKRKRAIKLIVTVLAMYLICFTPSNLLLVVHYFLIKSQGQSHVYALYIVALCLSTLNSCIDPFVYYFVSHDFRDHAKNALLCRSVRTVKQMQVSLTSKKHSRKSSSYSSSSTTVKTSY
Format: cell-based
Method in brief: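 Antagonist activity was taken as the decrease in the calcium response to an EC80 of 2-Furoyl-LIGRLO-NH2, measured over 5 min. The agonist was added after a 10 min compound-alone step on the same plate. The HEK-293 T cells express PAR-2 endogenously and were loaded with 1 μM Fluo4AM. Signals were referenced to buffer and EC80-alone controls.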

| Compound | IC50 [nM] |
| --- | --- |
| CC(C)Cc1nn(-c2cccc(Cl)c2)c2ccc(C(=O)N3CCNC(=O)C3(C)C)nc12 [Example 67, 4-(1-(3-chlorophenyl)-3-isobutyl-1H-pyrazolo[4,3-b]pyridine-5-carbonyl)-3,3-dimethylpiperazin-2-one] | 20 to 10000 |
| CC1(C)C(=O)NCCN1C(=O)c1ccc2c(-c3ccc(Cl)c(F)c3)cn(C(C)(C)C)c2n1 [Example 1, 4-(1-(tert-butyl)-3-(4-chloro-3-fluorophenyl)-1H-pyrrolo[2,3-b]pyridine-6-carbonyl)-3,3-dimethylpiperazin-2-one] | < 20 |
| CC(C)(C)n1cc(-c2ccc(Cl)c(F)c2)c2ccc(C(=O)N3CCCNC(=O)C3)nc21 [Example 17, 4-(1-(tert-butyl)-3-(4-chloro-3-fluorophenyl)-1H-pyrrolo[2,3-b]pyridine-6-carbonyl)-1,4-diazepan-2-one] | 20 to 10000 |
| COc1ccc(Cn2cc(-c3ccc(Cl)c(F)c3)c3ccc(C(=O)N4CCNC(=O)C4(C)C)nc32)cc1 [Example 27, 4-(3-(4-chloro-3-fluorophenyl)-1-(4-methoxybenzyl)-1H-pyrrolo[2,3-b]pyridine-6-carbonyl)-3,3-dimethylpiperazin-2-one] | 20 to 10000 |
| CC(C)Cc1nc(-c2ccc(Cl)cc2)n2ccc(C(=O)N3CCN(c4ccc(C(=O)O)cn4)CC3(C)C)cc12 [Example 219, 6-(4-(3-(4-chlorophenyl)-1-isobutylimidazo[1,5-a]pyridine-7-carbonyl)-3,3-dimethylpiperazin-1-yl)nicotinic acid] | 20 to 10000 |
| Cc1cc(N2CCN(C(=O)c3ccc4c(-c5ccc(Cl)c(F)c5)c(C(F)(F)F)n(CC(C)C)c4n3)C(C)(C)C2)nc(C)c1C(=O)O [Example 205, 6-(4-(3-(4-chloro-3-fluorophenyl)-1-isobutyl-2-(trifluoromethyl)-1H-pyrrolo[2,3-b]pyridine-6-carbonyl)-3,3-dimethylpiperazin-1-yl)-2,4-dimethyinicotinic acid] | < 20 |
| CC1(C)C(=O)N(CC(=O)N2CCOCC2)CCN1C(=O)c1ccc2c(-c3ccc(Cl)c(F)c3)cn(C(C)(C)C)c2n1 [Example 8, 4-(1-(tert-butyl)-3-(4-chloro-3-fluorophenyl)-1H-pyrrolo[2,3-b]pyridine-6-carbonyl)-3,3-dimethyl-1-(2-morpholino-2-oxoethyl)piperazin-2-one] | < 20 |
| Cc1cc(N2CCN(C(=O)c3ccc4c(-c5ccc(Cl)c(F)c5)cn(Cc5cccnc5)c4n3)C(C)(C)C2)nc(C)c1C(=O)O [Example 135, 6-(4-(3-(4-chloro-3-fluorophenyl)-1-(pyridin-3-ylmethyl)-1H-pyrrolo[2,3-b]pyridine-6-carbonyl)-3,3-dimethylpiperazin-1-yl)-2,4-dimethylnicotinic acid hydrochloride] | 20 to 10000 |
| CC(C)(C)n1cc(-c2ccc(Cl)c(F)c2)c2ccc(C(=O)N3CCC4(NC(=O)NC4=O)C(F)(F)C3)nc21 (centres unmarked) [Example 201, 8-(1-(tert-butyl)-3-(4-chloro-3-fluorophenyl)-1H-pyrrolo[2,3-b]pyridine-6-carbonyl)-6,6-difluoro-1,3,8-triazaspiro[4.5]decane-2,4-dione] | 20 to 10000 |
| Cc1cc(N2CCN(C(=O)c3ccc4c(n3)c(C(C)(C)C)cn4-c3ccc(Cl)c(F)c3)C(C)(C)C2)nc(C)c1C(=O)O [Example 185, 6-(4-(3-(tert-butyl)-1-(4-chloro-3-fluorophenyl)-1H-pyrrolo[3,2-b]pyridine-5-carbonyl)-3,3-dimethylpiperazin-1-yl)-2,4-dimethylnicotinic acid] | < 20 |
| Cc1cc(N2CCN(C(=O)c3cnc4c(-c5ccc(Cl)c(F)c5)cn(CC(C)C)c4n3)C(C)(C)C2)nc(C)c1C(=O)O [Example 190, 6-(4-(7-(4-chloro-3-fluorophenyl)-5-isobutyl-5H-pyrrolo[2,3-b]pyrazine-3-carbonyl)-3,3-dimethylpiperazin-1-yl)-2,4-dimethylnicotinic acid] | < 20 |
| Cc1nn(-c2ccc(Cl)c(F)c2)c2ccc(C(=O)N3CCNC(=O)C3(C)C)nc12 [Example 71, 4-(1-(4-chloro-3-fluorophenyl)-3-methyl-1H-pyrazolo[4,3-b]pyridine-5-carbonyl)-3,3-dimethylpiperazin-2-one] | 20 to 10000 |
| CCOP(=O)(OCC)c1ccc(N2CCN(C(=O)c3ccc4c(-c5ccc(Cl)c(F)c5)cn(C(C)(C)C)c4n3)C(C)(C)C2)nc1 [Example 178, diethyl (6-(4-(1-(tert-butyl)-3-(4-chloro-3-fluorophenyl)-1H-pyrrolo[2,3-b]pyridine-6-carbonyl)-3,3-dimethylpiperazin-1-yl)pyridin-3-yl)phosphonate] | 20 to 10000 |
| Cc1cc(C2CCN(C(=O)c3ccc4c(-c5ccc(Cl)c(F)c5)cn(C(C)(C)C)c4n3)CC2)nc(C)c1C(=O)O [Example 168, 6-(1-(1-(tert-butyl)-3-(4-chloro-3-fluorophenyl)-1H-pyrrolo[2,3-b]pyridine-6-carbonyl)piperidin-4-yl)-2,4-dimethylnicotinic acid] | 20 to 10000 |
| Cc1cc(N2CCN(C(=O)c3ccc4c(-c5ccc(Cl)c(F)c5)cn(C)c4n3)C(C)(C)C2)nc(C)c1C(=O)O [Example 122, 6-(4-(3-(4-chloro-3-fluorophenyl)-1-methyl-1H-pyrrolo[2,3-b]pyridine-6-carbonyl)-3,3-dimethylpiperazin-1-yl)-2,4-dimethylnicotinic acid hydrochloride] | 20 to 10000 |
| Cc1cc(N2CCN(C(=O)c3cc(C)c4c(-c5ccc(Cl)c(F)c5)cn(CC(C)C)c4n3)C(C)(C)C2)nc(C)c1C(=O)O [Example 188, 6-(4-(3-(4-chloro-3-fluorophenyl)-1-isobutyl-4-methyl-1H-pyrrolo[2,3-b]pyridine-6-carbonyl)-3,3-dimethylpiperazin-1-yl)-2,4-dimethyinicotinic acid] | 20 to 10000 |
| COc1ccc(-c2cn(CC(C)C)c3nc(C(=O)N4CCNC(=O)C4(C)C)ccc23)cc1OC [Example 145, 4-(3-(3,4-dimethoxyphenyl)-1-isobutyl-1H-pyrrolo[2,3-b]pyridine-6-carbonyl)-3,3-dimethylpiperazin-2-one] | > 10000 |
| CC(C)(C)n1cc(-c2ccc(Cl)c(F)c2)c2ccc(C(=O)N3CC4(CCOC4)C3)nc21 [Example 9, (1-(tert-butyl)-3-(4-chloro-3-fluorophenyl)-1H-pyrrolo[2,3-b]pyridin-6-yl)(6-oxa-2-azaspiro[3.4]octan-2-yl)methanone] | > 10000 |
| CC(C)N1CNC(=O)C12CCN(C(=O)c1ccc3c(-c4ccc(Cl)c(F)c4)cn(C(C)(C)C)c3n1)CC2 [Example 207, 8-(1-(tert-butyl)-3-(4-chloro-3-fluorophenyl)-1H-pyrrolo[2,3-b]pyridine-6-carbonyl)-1-isopropyl-1,3,8-triazaspiro[4.5]decan-4-one] | < 20 |
| Cc1cc(N2CCN(C(=O)c3ccc4c(-c5ccc(Cl)c(F)c5)cn(CC(C)(C)O)c4n3)C(C)(C)C2)nc(C)c1C(=O)O [Example 180, 6-(4-(3-(4-chloro-3-fluorophenyl)-1-(2-hydroxy-2-methylpropyl)-1H-pyrrolo[2,3-b]pyridine-6-carbonyl)-3,3-dimethylpiperazin-1-yl)-2,4-dimethylnicotinic acid] | 20 to 10000 |
| Cc1cc(N2C[C@@H]3C[C@H]2CN3C(=O)c2ccc3c(-c4ccc(Cl)c(F)c4)cn(C(C)(C)C)c3n2)nc(C)c1C(=O)O [Example 148, 6-((1S,4S)-5-(1-(tert-butyl)-3-(4-chloro-3-fluorophenyl)-1H-pyrrolo[2,3-b]pyridine-6-carbonyl)-2,5-diazabicyclo[2.2.1]heptan-2-yl)-2,4-dimethyinicotinic acid] | 20 to 10000 |
| CC1(C)CCCN1C(=O)c1ccc2c(-c3ccc(Cl)c(F)c3)cn(C(C)(C)C)c2n1 [Example 16, (1-(tert-butyl)-3-(4-chloro-3-fluorophenyl)-1H-pyrrolo[2,3-b]pyridin-6-yl)(2,2-dimethylpyrrolidin-1-yl)methanone] | 20 to 10000 |
| COC(=O)c1c(C)cc(N2CCN(C(=O)c3ccc4c(n3)c(CC(C)C)nn4-c3ccc(Cl)c(F)c3)C(C)(C)C2)nc1C [Example 64, methyl 6-(4-(1-(4-chloro-3-fluorophenyl)-3-isobutyl-1H-pyrazolo[4,3-b]pyridine-5-carbonyl)-3,3-dimethylpiperazin-1-yl)-2,4-dimethylnicotinate] | > 10000 |
| COC(=O)C1CCN(C(=O)c2ccc3c(-c4ccc(Cl)c(F)c4)cn(C(C)(C)C)c3n2)CC1(C)C (centres unmarked) [Example 21, methyl 1-(1-(tert-butyl)-3-(4-chloro-3-fluorophenyl)-1H-pyrrolo[2,3-b]pyridine-6-carbonyl)-3,3-dimethylpiperidine-4-carboxylate] | 20 to 10000 |
| CC(C)(C)n1cc(-c2ccc(Cl)c(F)c2)c2ccc(C(=O)N3CCC4(NC(=O)NC4=O)C(C)(C)C3)nc21 (centres unmarked) [Example 200, 8-(1-(tert-butyl)-3-(4-chloro-3-fluorophenyl)-1H-pyrrolo[2,3-b]pyridine-6-carbonyl)-6,6-dimethyl-1,3,8-triazaspiro[4.5]decane-2,4-dione] | 20 to 10000 |
| CC(C)Cc1nn(-c2ccc(Cl)c(F)c2)c2ccc(C(=O)N3CCNC(=O)C3(C)C)nc12 [Example 62, 4-(1-(4-chloro-3-fluorophenyl)-3-isobutyl-1H-pyrazolo[4,3-b]pyridine-5-carbonyl)-3,3-dimethylpiperazin-2-one] | 20 to 10000 |
